Assays:
T84 cells = format: cell-based, human; conditions: 50 μM compound
rabbit intestinal loop = test: Liquid secretion induced by STa in a rabbit intestinal loop model; format: in vivo
Procedure: The test was performed by the method known in the art (Alcantara, C. S.; Jin, X. H.; Brito, G. A.; Carneiro-Filho, B. A.; Barrett, L. J.; Carey, R. M.; Guerrant, R. L., Angiotensin II subtype 1 receptor blockade inhibits Clostridium difficile toxin A-induced intestinal secretion in a rabbit model. J Infect Dis 2005, 191, (12), 2090-6). Volume of liquid in the loop was divided by the length of the loop and the normalized value was used to assess liquid accumulation in the intestinal lumen.

[1] = molecular target: pertussis adenylyl cyclase toxin (Bordetella pertussis, UniProt P0DKX7); test: Cyclic AMP accumulation in T84 cells infected with pertussis adenylyl cyclase toxin; format: cell-based; conditions: 50 μM compound
Procedure: The assay was performed in T84 cells by the methods described in Example 2 and Ahuja, N.; Kumar, P.; Bhatnagar, R., The adenylate cyclase toxins. Crit Rev Microbiol 2004, 30, (3), 187-96, but the amount of cyclic AMP accumulated was assayed with a commercially available kit from Cayman Chemical Co.
Cells were treated with pertussis adenylyl cyclase toxin at 1 μg/ml in Dulbecco's minimal essential medium for 60 min in the presence of vehicle DMSO (0.1%) or 50 μM compound IIb for 60 min and then medium was aspirated and replaced with DPBS containing 1 mM IBMX and DMSO or compound IIb, respectively, for the vehicle and compound IIb-treated samples. After 10 min incubation, the amount of cyclic AMP was measured. […] N=3.

[2] = molecular target: anthrax edema toxin (protective antigen and edema factor) (Bacillus anthracis, UniProt P40136); format: cell-based
[3] = molecular target: T1, guanylyl cyclase type C (GC-C) (Homo sapiens, UniProt P25092); test: STa-induced activation of GC-C in T84 cells (cyclic GMP accumulation, ELISA); format: cell-based; set-up: endogenous in cells; host or cells: T84 cells
[4] = molecular target: T2, guanylyl cyclase type B (GC-B) (Rattus norvegicus, UniProt P16067); test: CNP-induced cyclic GMP accumulation in RFL-6 fibroblast cells; conditions: RFL-6 cells, 1 μM CNP, 50 μM compound
T2 sequence (P16067 17-1047): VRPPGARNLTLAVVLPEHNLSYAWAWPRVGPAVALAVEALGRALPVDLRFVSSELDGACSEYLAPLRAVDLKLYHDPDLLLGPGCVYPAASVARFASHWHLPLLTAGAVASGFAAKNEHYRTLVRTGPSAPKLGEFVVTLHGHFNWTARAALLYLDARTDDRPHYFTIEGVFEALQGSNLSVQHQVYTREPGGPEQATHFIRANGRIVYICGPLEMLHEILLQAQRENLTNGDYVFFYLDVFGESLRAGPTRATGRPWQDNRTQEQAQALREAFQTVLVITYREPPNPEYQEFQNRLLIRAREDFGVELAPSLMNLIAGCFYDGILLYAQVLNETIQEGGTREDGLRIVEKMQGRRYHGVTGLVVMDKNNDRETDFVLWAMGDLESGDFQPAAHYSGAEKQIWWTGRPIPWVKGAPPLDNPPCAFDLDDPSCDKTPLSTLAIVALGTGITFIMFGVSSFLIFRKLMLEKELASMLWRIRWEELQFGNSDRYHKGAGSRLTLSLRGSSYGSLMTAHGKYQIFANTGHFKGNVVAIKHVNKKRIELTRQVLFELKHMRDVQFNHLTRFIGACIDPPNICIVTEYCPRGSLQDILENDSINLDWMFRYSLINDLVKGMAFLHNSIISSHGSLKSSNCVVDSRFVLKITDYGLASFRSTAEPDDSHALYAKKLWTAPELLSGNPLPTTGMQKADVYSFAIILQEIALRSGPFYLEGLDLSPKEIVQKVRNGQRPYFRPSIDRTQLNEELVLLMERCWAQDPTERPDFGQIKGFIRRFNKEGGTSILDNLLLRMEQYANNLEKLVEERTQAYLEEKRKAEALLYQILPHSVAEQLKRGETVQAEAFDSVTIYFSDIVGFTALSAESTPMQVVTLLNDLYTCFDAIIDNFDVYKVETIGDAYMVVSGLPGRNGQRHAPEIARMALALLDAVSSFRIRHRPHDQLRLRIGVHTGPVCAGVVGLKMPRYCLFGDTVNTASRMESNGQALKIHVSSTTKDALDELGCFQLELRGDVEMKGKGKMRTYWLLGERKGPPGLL

[5] = molecular target: T1, guanylyl cyclase type C (GC-C); test: Guanylin-induced activation of GC-C in T84 cells (cyclic GMP accumulation)

T1 sequence (P25092 24-1073): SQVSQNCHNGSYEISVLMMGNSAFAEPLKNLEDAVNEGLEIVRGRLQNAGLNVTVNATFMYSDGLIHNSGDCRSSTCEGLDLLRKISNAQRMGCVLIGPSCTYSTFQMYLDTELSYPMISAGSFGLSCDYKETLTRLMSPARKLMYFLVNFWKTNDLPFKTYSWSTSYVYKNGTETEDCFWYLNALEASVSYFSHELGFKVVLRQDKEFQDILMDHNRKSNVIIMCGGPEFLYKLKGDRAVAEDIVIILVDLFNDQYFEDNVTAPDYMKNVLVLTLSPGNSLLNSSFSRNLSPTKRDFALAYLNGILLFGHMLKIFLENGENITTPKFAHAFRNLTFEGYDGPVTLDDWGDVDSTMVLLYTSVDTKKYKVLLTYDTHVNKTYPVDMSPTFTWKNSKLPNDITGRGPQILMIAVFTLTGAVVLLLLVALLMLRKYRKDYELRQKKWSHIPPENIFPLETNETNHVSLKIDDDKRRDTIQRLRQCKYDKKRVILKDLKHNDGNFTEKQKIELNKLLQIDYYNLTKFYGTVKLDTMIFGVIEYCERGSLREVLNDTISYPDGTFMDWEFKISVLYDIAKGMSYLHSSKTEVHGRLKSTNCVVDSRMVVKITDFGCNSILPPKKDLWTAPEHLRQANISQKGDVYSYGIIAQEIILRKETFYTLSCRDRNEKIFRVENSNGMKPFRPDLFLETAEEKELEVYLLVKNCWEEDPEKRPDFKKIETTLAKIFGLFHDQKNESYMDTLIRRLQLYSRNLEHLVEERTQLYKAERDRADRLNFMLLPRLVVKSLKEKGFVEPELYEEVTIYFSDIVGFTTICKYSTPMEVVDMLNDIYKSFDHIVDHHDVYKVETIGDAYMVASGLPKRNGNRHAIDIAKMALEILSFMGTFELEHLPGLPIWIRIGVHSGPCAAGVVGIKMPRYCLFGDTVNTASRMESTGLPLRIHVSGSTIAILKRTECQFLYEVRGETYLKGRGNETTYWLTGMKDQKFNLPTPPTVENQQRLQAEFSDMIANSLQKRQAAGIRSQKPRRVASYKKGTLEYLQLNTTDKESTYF
Chain of pertussis adenylyl cyclase toxin (P0DKX7 whole entry, looked up): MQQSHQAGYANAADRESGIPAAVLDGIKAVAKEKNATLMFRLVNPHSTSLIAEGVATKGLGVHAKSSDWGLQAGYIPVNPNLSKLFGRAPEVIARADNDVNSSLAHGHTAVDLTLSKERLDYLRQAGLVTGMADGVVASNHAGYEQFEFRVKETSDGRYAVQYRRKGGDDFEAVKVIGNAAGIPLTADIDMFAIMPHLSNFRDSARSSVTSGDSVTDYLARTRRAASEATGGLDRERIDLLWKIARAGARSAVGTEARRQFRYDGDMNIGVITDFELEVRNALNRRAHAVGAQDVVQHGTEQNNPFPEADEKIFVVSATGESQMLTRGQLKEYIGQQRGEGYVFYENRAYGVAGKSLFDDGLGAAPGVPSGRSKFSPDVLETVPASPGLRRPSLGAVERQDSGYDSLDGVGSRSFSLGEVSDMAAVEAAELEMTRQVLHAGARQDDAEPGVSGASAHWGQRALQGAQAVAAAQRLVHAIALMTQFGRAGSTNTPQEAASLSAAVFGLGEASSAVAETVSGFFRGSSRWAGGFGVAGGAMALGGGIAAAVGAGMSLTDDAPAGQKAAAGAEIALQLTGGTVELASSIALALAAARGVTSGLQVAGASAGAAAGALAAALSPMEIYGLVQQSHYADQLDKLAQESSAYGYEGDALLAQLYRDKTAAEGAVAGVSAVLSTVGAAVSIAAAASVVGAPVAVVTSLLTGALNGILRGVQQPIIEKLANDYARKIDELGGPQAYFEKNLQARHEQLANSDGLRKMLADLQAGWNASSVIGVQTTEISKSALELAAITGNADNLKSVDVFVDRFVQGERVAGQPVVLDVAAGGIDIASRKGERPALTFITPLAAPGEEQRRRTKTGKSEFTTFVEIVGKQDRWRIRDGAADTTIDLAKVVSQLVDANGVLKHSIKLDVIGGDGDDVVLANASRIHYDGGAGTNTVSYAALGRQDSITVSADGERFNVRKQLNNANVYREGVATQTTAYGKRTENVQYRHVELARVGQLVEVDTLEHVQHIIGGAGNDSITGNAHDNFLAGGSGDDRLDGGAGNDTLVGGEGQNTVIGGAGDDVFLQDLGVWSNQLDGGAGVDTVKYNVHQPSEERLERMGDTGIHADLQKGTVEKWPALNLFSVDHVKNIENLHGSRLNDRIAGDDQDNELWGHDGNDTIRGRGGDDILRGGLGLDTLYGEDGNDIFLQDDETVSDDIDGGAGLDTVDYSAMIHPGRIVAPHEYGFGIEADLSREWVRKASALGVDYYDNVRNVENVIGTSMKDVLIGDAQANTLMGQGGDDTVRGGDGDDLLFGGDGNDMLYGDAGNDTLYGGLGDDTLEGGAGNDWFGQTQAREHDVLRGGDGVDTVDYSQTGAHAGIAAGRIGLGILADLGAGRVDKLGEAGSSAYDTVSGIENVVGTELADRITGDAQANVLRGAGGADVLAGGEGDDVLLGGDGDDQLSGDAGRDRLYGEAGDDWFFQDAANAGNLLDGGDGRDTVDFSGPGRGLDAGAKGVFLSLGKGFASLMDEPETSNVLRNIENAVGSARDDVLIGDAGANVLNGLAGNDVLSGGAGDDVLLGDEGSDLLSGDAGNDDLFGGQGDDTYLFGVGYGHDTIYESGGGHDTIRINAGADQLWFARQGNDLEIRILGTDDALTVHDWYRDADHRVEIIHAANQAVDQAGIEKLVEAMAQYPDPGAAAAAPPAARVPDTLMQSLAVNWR
Chain of anthrax edema toxin (protective antigen and edema factor) (P40136 whole entry, looked up): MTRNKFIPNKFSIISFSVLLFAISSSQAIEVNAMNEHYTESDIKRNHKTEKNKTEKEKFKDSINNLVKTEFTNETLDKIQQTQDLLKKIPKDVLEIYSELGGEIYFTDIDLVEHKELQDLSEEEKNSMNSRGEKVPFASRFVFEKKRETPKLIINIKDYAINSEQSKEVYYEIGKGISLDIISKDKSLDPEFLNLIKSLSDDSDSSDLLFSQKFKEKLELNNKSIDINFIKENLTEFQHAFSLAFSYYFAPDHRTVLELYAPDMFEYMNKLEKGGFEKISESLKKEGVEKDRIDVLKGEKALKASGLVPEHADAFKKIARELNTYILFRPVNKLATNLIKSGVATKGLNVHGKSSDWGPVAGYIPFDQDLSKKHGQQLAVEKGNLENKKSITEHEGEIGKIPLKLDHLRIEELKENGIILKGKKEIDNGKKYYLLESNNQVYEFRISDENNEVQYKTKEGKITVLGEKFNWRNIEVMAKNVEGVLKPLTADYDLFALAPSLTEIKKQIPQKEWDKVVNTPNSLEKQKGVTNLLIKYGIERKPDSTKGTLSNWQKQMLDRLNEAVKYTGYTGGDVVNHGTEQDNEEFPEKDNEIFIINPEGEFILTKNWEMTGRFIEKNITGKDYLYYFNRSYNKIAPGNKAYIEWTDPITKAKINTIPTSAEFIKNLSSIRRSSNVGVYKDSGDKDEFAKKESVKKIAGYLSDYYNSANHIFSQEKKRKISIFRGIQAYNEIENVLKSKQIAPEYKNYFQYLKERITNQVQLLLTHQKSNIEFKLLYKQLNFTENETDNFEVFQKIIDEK

## Cn1c2c(c(=O)n(C)c1=O)C(c1cccc(Br)c1)C1=C(N2)c2ccccc2C1=O (stereo not drawn) [compound IIb]
T84 cells
  increase in chloride efflux induced by 8-bromo cyclic AMP or ionomycin: not influenced
  increase in chloride efflux induced by isoproterenol, cholera toxin and forskolin: significantly suppressed
T84 cells; 50 μM forskolin, forskolin alone 2690, baseline 477
  chloride anion efflux, increase in fluorescence of MQAE: 428 relative units in 10 min
Rabbit intestinal loop; rabbit loops injected with 100 nM STa and 50 μM compound, STa+vehicle 0.62±0.05, PBS 0.18±0.03
  liquid accumulation (volume per loop length): 0.15 ± 0.06 mL/cm
Rabbit intestinal loop; rabbit loops, 100 nM STa, 50 μM compound
  inhibition of STa-stimulated liquid accumulation: completely
[1]; toxin 1 μg/ml 60 min, vehicle 9.97±0.72
  cyclic AMP accumulation: 4.06±0.44 nmol/mg protein
[1]; toxin 1 μg/ml
  decrease of cyclic AMP accumulation: 59.2%
[2]
  cyclic AMP accumulation: 62.1±6.3 pmol/mg protein
  decrease of cyclic AMP accumulation: 55.2%
[3]
  inhibition of STa-induced activation of GC-C (FIG. 2): inhibition
[3]; 100 nM STa, 50 μM compound
  inhibition at 50 µM: 84.7%
[3]; 100 nM STa, 50 μM compound, vehicle 124±10, basal 6±2
  level of cyclic GMP: 24±6 pmol/mg protein
[3]; 100 nM STa, read-out: IC50, inhibition of cyclic GMP synthesis
  IC50: 3.4 µM
[3]; increasing STa 1 nM to 5 μM, 50 μM compound
  STa concentration-dependent accumulation of cyclic GMP: significantly suppressed
[4]
  inhibition of cyclic GMP accumulation (FIG. 6): inhibition
[5]
  IC50: 7.2 µM
[5]; T84, read-out: inhibition of guanylin-induced cyclic GMP
  inhibition at 50 µM: 58.9%
[5]; T84 cells, 500 nM guanylin, 50 μM compound, vehicle 124±13
  level of cyclic GMP: 51±6 pmol/mg protein

Reference: patent US20100035867A1 (priority 2006, published 2010)
